Patent US20260216116A1, “QUATERNARY AMMONIUM COMPOUNDS (QACS) AND PROCESS FOR PREPARATION THEREOF” (priority 2023, published 2026)

Test: Dissociation of 1 carboxy N—N—N trimethylmethanaminium benzoate in buffer solutions
Type: physicochemical
Protocol: Sample Preparation: 750 mg sample was dissolved in 250 mL of respective buffer solution and kept in orbital shaker at 37° C. for 30 minutes, 1 hour and 2 hours in separate flask. […]

[1] = pH 1.2 (0.1N HCl), 1 Hours, 37° C.
[2] = pH 1.2 (0.1N HCl), 2 Hours, 37° C.
[3] = pH 1.2 (0.1N HCl), 30 Minutes, 37° C.
[4] = pH 1.2 (0.1N HCl), Initial, 750 mg in 250 mL, 37° C.
[5] = pH 6.8 (Phosphate Buffer), 1 Hours, 37° C.
[6] = pH 6.8 (Phosphate Buffer), 2 Hours, 37° C.
[7] = pH 6.8 (Phosphate Buffer), 30 Minutes, 37° C.
[8] = pH 6.8 (Phosphate Buffer), Initial
[9] = pH 6.8 (Phosphate Buffer), Initial, 750 mg in 250 mL, 37° C.

Dissociation (1.2 pH): completely dissociated
Dissociation (6.8 pH): completely dissociated
Concentration in %: 1 carboxy N-N-N trimethylmethanaminium, % (Control): 70%
Concentration in %: Benzoic acid, % (Control): 36%
%, Dissociation of 1 carboxy N-N-N trimethylmethanaminium [1]: 100%
%, Dissociation of Benzoic acid [1]: 115%
Concentration in %: 1 carboxy N-N-N trimethylmethanaminium, % [1]: 69%
Concentration in %: Benzoic acid, % [1]: 41%
%, Dissociation of 1 carboxy N-N-N trimethylmethanaminium [2]: 100%
%, Dissociation of Benzoic acid [2]: 114%
Concentration in %: 1 carboxy N-N-N trimethylmethanaminium, % [2]: 70%
Concentration in %: Benzoic acid, % [2]: 41%
%, Dissociation of 1 carboxy N-N-N trimethylmethanaminium [3]: 98%
%, Dissociation of Benzoic acid [3]: 115%
Concentration in %: 1 carboxy N-N-N trimethylmethanaminium, % [3]: 68%
Concentration in %: Benzoic acid, % [3]: 41%
%, Dissociation of 1 carboxy N-N-N trimethylmethanaminium (pH 1.2 (0.1N HCl), Initial): 97%
%, Dissociation of Benzoic acid (pH 1.2 (0.1N HCl), Initial): 94%
Concentration in %: 1 carboxy N-N-N trimethylmethanaminium, % [4]: 67%
Concentration in %: Benzoic acid, % [4]: 34%
%, Dissociation of 1 carboxy N-N-N trimethylmethanaminium [5]: 97%
%, Dissociation of Benzoic acid [5]: 109%
Concentration in %: 1 carboxy N-N-N trimethylmethanaminium, % [5]: 70%
Concentration in %: Benzoic acid, % [5]: 40%
%, Dissociation of 1 carboxy N-N-N trimethylmethanaminium [6]: 99%
%, Dissociation of Benzoic acid [6]: 108%
Concentration in %: 1 carboxy N-N-N trimethylmethanaminium, % [6]: 71%
Concentration in %: Benzoic acid, % [6]: 40%
%, Dissociation of 1 carboxy N-N-N trimethylmethanaminium [7]: 98%
%, Dissociation of Benzoic acid [7]: 109%
Concentration in %: 1 carboxy N-N-N trimethylmethanaminium, % [7]: 71%
Concentration in %: Benzoic acid, % [7]: 40%
%, Dissociation of 1 carboxy N-N-N trimethylmethanaminium [8]: 96%
%, Dissociation of Benzoic acid [8]: 97%
Concentration in %: 1 carboxy N-N-N trimethylmethanaminium, % [9]: 69%
Concentration in %: Benzoic acid, % [9]: 36%
Structure (SMILES): C[N+](C)(C)CC(=O)O.O=C([O-])c1ccccc1 [1-carboxy-N—N—N-trimethylmethanaminium benzoate]
